Measured values published in patent publication US20030194749A1 (priority 2002, published 2003).
Read-outs that look alike come from different tables or passages of the source. Blank lines part the entries; values can stand above or below the molecule they belong to.

Columns and labels:
PI 3-kinase = conditions: cited from earlier work; for fold less effective than wortmannin towards PI 3-kinase: relative to wortmannin
DNA-PKcs = target: T1, DNA-PKcs (Homo sapiens, UniProt P78527); test: Streptavidin-sepharose pull-down from nuclear extract, DNA-PKcs; assay type: binding; conditions: HeLa nuclear extract; 150 μM wortmannin or 1 mM ATP
T1 construct: we used nuclear extract for our pull-down experiments; endogenous in cells
Method: (§1) For the competition with ATP, ATP was directly added to a final concentration of 1 mM ATP.
(§2) To determine which PIK-related kinases could be pulled-down with BW, we performed several affinity precipitations after incubation with BW concentrations ranging from 0.5-50 μM. As controls, we used the […] compound (negative) and nuclear extracts (positive). We probed a Western blot for the precipitation of ATR, ATM and DNA-PKcs and received a pattern of different sensibility that is related to the IC50s observed in vitro. DNA-PKcs is the most sensitive member to precipitation with BW of the PIK-related kinases we tested and can be precipitated at concentrations as low as 0.5 μM. ATM also seems to be more sensitive to precipitation than ATR, and starts to give a signal at 2 μM. ATR is the least sensitive kinase to precipitation tested, and starts to pull-down at 10 μM.
(§3) Therefore, we performed pull-down reactions with 30 μM biotin-wortmannin using HeLa nuclear extract. […] The proteins that were pull-down were analyzed via Western blot detecting DNA-PKcs, ATM and biotin-wortmannin.

ATM = target: T2, ATM (Homo sapiens, UniProt Q13315); test: Streptavidin-sepharose pull-down from nuclear extract, ATM; assay type: binding; conditions: HeLa nuclear extract; 150 μM wortmannin or 1 mM ATP
T2 construct: we used nuclear extract for our pull-down experiments; endogenous in cells
Method: as §1, §2, §3

ATR = ATR (Homo sapiens, UniProt Q13535); conditions: Sarkaria et al., 1998; cited from earlier work
Flag-tagged ATR = target: T3, Flag-tagged ATR (Homo sapiens, UniProt Q13535); test: ATR kinase assay (GST-RAD17 substrate); assay type: biochemical; conditions: 3-4 experiments, read from a graph
T3 construct: expressed in transfected cells
Method: After the incubation, the beads were washed in 500 μl kinase buffer.
ATR kinase assay: ATR precipitates were incubated with 27.5 μl of kinase buffer+1 μl 32P γ-ATP (1 μCi)+1.5 μl GST-RAD17 substrate (1.5 μg) for exactly 15 min at 30° C. The reactions were stopped by adding 10 μl of 6×SDS sample buffer and boiling the sample for 8 min at 95° C.
The dried gel was either exposed overnight to Biomax film or in the phosphoimager cassette for several hours and quantified using the program Image Quant v1.2 from Molecular Dynamics, Sunnyvale, Calif. (USA). Curves were plotted in the program KaleidaGraph v3.5 (Synergy Software, Reading, Pa.) using the Hill equation. […]
After the kinase reactions were carried out, the samples were separated on a 5-12.5% gradient gel. […] Flag-ATR and labeling with biotin-wortmannin were detected by chemiluminescence using α-Flag M5 or streptavidin HRP antibody. The lower half of the gel was stained with coomassie, dried and analyzed by autoradiography.
Analysis of substrate phosphorylation by autoradiography allows evaluation of the kinase activity that remains after incubation with different amounts of biotin-wortmannin. […] In the lower lane, the amount of Flag-tagged ATR was determined by using a Flag specific antibody. This signal was used to normalize for equal loading to generate quantitative data. […]

[1] = Stability in buffer systems by thin layer chromatography; assay type: physicochemical; conditions: most conditions tested (not 1 M Tris)
HEK 293T cells = test: Capability to enter intact cells (protein labeling after cell incubation); assay type: cell-based, human; conditions: 50 μM, 45 min
Method: The media and the inhibitory compound were premixed to reduce toxicity and incubated on the cells for 45 min or 1 h.
After 45 min, the cells were harvested and then lysates were generated. 100 μg of protein was separated on a 5-12.5% gradient gel, transferred to PVDF membrane and either analyzed with α-wortmannin sera or with streptavidin HRP to detect biotin-wortmannin.

mTOR (FRAP) = mTOR (FRAP) (Homo sapiens, UniProt P42345); conditions: cited from earlier work

T2 sequence (Q13315 whole entry): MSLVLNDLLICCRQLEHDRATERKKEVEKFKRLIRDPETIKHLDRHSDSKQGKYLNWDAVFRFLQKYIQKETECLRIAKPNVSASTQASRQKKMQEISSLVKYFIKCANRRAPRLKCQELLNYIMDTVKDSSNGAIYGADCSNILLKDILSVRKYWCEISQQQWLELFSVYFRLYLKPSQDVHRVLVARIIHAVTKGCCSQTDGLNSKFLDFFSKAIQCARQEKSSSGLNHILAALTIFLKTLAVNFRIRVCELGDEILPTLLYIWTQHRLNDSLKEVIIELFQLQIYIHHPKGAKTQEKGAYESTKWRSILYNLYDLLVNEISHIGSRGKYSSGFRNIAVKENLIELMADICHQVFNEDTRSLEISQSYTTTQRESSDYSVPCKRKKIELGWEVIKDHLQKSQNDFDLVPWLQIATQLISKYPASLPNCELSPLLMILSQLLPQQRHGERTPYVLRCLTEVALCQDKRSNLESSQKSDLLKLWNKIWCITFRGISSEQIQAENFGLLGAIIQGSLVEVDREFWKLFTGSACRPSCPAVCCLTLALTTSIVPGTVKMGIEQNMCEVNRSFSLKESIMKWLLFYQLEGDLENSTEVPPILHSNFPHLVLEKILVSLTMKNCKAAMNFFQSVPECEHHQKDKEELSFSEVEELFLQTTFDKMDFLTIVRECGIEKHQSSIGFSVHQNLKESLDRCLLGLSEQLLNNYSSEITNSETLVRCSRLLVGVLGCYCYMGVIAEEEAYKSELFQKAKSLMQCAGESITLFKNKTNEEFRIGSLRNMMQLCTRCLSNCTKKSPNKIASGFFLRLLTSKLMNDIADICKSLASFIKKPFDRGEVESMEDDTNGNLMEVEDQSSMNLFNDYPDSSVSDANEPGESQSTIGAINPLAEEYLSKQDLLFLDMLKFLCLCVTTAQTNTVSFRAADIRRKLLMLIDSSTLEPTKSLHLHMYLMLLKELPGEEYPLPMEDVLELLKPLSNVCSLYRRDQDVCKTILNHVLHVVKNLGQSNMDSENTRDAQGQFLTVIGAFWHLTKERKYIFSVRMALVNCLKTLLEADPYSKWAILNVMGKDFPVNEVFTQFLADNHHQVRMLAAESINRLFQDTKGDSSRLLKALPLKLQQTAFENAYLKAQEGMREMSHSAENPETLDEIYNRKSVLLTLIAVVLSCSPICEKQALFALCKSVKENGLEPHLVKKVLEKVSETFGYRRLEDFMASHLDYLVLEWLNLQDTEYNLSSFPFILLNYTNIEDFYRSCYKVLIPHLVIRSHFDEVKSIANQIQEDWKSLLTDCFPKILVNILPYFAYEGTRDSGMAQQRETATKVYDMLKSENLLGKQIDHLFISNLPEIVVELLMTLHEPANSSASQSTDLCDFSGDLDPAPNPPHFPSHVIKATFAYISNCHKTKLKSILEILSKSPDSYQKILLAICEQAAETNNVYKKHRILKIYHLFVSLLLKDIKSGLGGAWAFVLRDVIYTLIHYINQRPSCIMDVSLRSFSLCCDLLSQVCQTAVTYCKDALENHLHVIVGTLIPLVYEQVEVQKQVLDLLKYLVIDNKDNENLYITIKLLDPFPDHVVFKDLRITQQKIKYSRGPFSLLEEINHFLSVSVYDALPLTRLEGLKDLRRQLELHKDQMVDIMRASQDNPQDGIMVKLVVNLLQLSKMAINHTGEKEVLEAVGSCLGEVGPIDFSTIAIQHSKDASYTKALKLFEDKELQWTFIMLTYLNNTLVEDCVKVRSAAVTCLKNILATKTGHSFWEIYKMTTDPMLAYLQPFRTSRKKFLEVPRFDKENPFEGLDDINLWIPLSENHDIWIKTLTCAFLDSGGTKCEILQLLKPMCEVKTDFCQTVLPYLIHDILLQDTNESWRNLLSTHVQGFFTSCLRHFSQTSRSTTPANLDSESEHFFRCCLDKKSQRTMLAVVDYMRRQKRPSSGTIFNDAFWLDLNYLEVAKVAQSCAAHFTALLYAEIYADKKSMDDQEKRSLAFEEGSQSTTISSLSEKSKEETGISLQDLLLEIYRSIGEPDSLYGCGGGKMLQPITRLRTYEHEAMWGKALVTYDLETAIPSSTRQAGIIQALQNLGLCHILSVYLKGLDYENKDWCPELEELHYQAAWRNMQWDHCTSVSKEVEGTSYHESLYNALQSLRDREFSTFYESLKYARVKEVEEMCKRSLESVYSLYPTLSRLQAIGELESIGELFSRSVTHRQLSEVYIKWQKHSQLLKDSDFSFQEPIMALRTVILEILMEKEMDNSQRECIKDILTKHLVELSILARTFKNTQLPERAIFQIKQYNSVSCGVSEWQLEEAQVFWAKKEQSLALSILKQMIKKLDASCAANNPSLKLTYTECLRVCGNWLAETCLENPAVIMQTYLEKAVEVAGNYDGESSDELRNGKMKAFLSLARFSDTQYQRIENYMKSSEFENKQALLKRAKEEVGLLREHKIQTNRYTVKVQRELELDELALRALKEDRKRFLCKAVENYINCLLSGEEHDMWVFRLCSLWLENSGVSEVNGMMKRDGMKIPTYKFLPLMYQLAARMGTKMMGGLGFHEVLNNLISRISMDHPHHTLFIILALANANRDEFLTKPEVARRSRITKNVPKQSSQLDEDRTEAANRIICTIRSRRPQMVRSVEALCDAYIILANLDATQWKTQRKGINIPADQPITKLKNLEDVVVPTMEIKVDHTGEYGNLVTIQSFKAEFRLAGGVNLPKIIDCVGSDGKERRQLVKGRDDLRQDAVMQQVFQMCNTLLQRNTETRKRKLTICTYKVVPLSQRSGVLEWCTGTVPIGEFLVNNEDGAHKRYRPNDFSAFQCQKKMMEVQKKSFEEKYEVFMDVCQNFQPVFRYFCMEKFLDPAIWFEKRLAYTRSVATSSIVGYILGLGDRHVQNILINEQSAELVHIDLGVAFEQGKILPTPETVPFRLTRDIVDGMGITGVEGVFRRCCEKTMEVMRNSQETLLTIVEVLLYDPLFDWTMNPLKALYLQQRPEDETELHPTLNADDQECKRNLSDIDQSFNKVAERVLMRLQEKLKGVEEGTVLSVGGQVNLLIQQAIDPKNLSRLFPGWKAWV

SMILES: COCC1OC(=O)c2coc3c2C1(C)C1=C(C3=O)C2CCC(=O)C2(C)CC1O (stereo not shown) [11-O-desacetyl wortmannin]
IC50 (PI 3-kinase): 0.0167 µM
fold less effective than wortmannin towards PI 3-kinase (PI 3-kinase): 4 fold
fold less effective than wortmannin towards PI 3-kinase (PI 3-kinase; listed as 0-11-desacetylwortmannin): about four

effect of pretreatment on pull-down of DNA-PKcs with 30 μM biotin-wortmannin (DNA-PKcs): did not show an effect
effect of pretreatment on pull-down of ATM with 30 μM biotin-wortmannin (ATM): did not show an effect
SMILES: Nc1ncnc2c1ncn2[C@@H]1O[C@H](COP(=O)(O)OP(=O)(O)OP(=O)(O)O)[C@@H](O)[C@H]1O [ATP]

SMILES: COC[C@H]1OC(=O)c2coc3c2[C@@]1(C)C1=C(C3=O)[C@@H]2CCC(=O)[C@@]2(C)C[C@H]1OC(C)=O [wortmannin, Wortmannin]
IC50 (ATR): 1.8 µM
IC50 (Flag-tagged ATR): 1.8 µM
time in large part stable in buffer [1]: at least 30 min
capability to enter into intact cells (HEK 293T cells): capable to enter into intact cells

SMILES: O=c1cc(N2CCOCC2)oc2c(-c3ccccc3)cccc12 [LY294002, 2-(4-morpholinyl)-S-phenyl-4H-1-benzopyran-4-one]
IC50 (mTOR (FRAP)): ~3 µM
